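Briefly, cells in 96-well plates were exposed to five compound concentrations for 48 h, and endpoints were estimated by linear interpolation. Here, GI50 denotes the concentration required for 50% inhibition of growth. TGI: concentration producing complete growth inhibition.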
Columns and labels:
Assay in all cases: growth of human tumour cells (NCI), 48 h
[1] = system: SN12C renal
[2] = system: ACHN renal
[3] = system: IGROV1 ovarian
[4] = system: PC-3 prostate
[5] = system: SNB-19 CNS
[6] = system: MOLT-4 leukemia
[7] = system: SF-295 CNS
[8] = system: HS 578T breast
[9] = system: MDA-N
[10] = system: HOP-92 NSCLC
[11] = system: COLO 205 colon
[12] = system: SR leukemia

Compound | TGI [1] [µM] | TGI [2] [µM] | TGI [3] [µM] | TGI [4] [µM] | TGI [5] [µM] | TGI [6] [µM] | TGI [7] [µM] | TGI [8] [µM] | TGI [9] [µM] | TGI [10] [µM] | TGI [11] [µM] | TGI [12] [µM] | GI50 [1] [µM] | GI50 [12] [µM] | GI50 [3] [µM] | GI50 [4] [µM] | GI50 [5] [µM] | GI50 [6] [µM] | GI50 [8] [µM] | GI50 [10] [µM]
C[C@H](C/C=C/C(C)(C)O)[C@H]1CC[C@@]2(C)[C@@H]3CC[C@H]4C(C)(C)[C@@H](O)CC[C@@]45C[C@@]35CC[C@]12C | 27.9 | 18.9 | 48.9 | 65.1 | 54.9 | 32.8 | 30.2 | 27.8 | > 100 | 26.5 | – | – | – | – | – | – | – | – | – | –
NNC(=O)c1cc(=O)[nH][nH]1 | > 100 | > 100 | > 100 | > 100 | > 100 | > 100 | > 100 | > 100 | > 100 | > 100 | > 100 | – | – | – | – | – | – | – | – | –
COc1ccc2oc(=O)c(-c3csc(C)n3)cc2c1 | > 100 | > 100 | > 100 | > 100 | > 100 | > 100 | 40 | 79.3 | – | 41.2 | > 100 | > 100 | – | – | – | – | – | – | – | –
c1cnc(N2CCN(Cc3c[nH]c4ccccc34)CC2)nc1 | > 100 | > 100 | > 100 | > 100 | > 100 | > 100 | > 100 | > 100 | > 100 | > 100 | 67.6 | – | – | – | – | – | – | – | – | –
CSc1c(C(=O)Nc2ccc(Cl)cc2)c(N)n(N)c(=O)c1C#N | > 100 | – | – | > 100 | > 100 | > 100 | – | > 100 | > 100 | – | > 100 | > 100 | – | – | – | – | – | – | – | –
O=C(OCC(Cl)(Cl)Cl)O[C@@H]1CCCC1(c1ccccc1)c1ccccc1 | > 100 | > 100 | > 100 | > 100 | > 100 | 34.1 | > 100 | – | > 100 | – | > 100 | > 100 | – | – | – | – | – | – | – | –
CCN(CC)c1ccc2cc(C(=O)Nc3ccccn3)c(=N)oc2c1 | > 100 | > 100 | > 100 | – | 76.2 | > 100 | – | 88.5 | > 100 | > 100 | > 100 | > 100 | – | – | – | – | – | – | – | –
O=C(NNc1nc(-c2ccccc2)cs1)C(F)(F)F | > 100 | > 100 | > 100 | > 100 | > 100 | > 100 | > 100 | 52.2 | – | – | > 100 | > 100 | – | – | – | – | – | – | – | –
CCCC(CCN)(CCN)[N+](=O)[O-] | > 100 | > 100 | > 100 | > 100 | > 100 | > 100 | > 100 | > 100 | > 100 | – | > 100 | > 100 | – | – | – | – | – | – | – | –
CCOC(=O)C1=C(C)N(c2ccc(OC)cc2)C2(O)C=CC(=O)C3=C(O)c4ccccc4C(=O)C312 (centres undefined) | 30.2 | 39.3 | 15.6 | 24.4 | 41.1 | 20.5 | 29.3 | 33.5 | 34 | 9.75 | 24 | – | – | – | – | – | – | – | – | –
O=C(CCc1ccccc1)ON1C(=S)C(c2ccccc2)(c2ccccc2)N=C1Sc1ccccc1 | > 100 | > 100 | 55.5 | > 100 | > 100 | 28.6 | > 100 | > 100 | – | > 100 | > 100 | – | – | – | – | – | – | – | – | –
COc1ccc(C(OCC2OC(n3ccc(NC(=O)c4ccccc4)nc3=O)CC2OP2(=S)SCCS2)(c2ccccc2)c2ccc(OC)cc2)cc1 (centres undefined) | 58.6 | 61.5 | > 100 | 41.5 | 86.4 | > 100 | 97.9 | 76.3 | > 10 | – | > 10 | > 100 | – | – | – | – | – | – | – | –
N#C/C(=C/NC(=S)c1ccncc1)C(N)=O | > 100 | > 100 | > 100 | – | > 100 | > 100 | > 100 | – | > 100 | > 100 | > 100 | – | – | – | – | – | – | – | – | –
COc1cc(C2c3cc4c(cc3OC(NCCO)C2C)OCO4)cc(OC)c1OC (centres undefined) | > 100 | > 91.5 | > 100 | > 100 | > 100 | 26.3 | – | > 100 | 0.5 | 93 | 12.3 | – | – | – | – | – | – | – | – | –
CC1C(c2ccc(Cl)cc2)c2cc3c(cc2OC1N1CCOCC1)OCO3 (centres undefined) | > 100 | > 100 | > 100 | > 100 | > 100 | > 100 | > 100 | 70.4 | > 100 | – | > 100 | 17.9 | – | – | – | – | – | – | – | –
C=CCOCn1cc(C)c(=O)[nH]c1=O | > 100 | > 100 | > 100 | > 100 | > 100 | > 100 | > 100 | > 100 | > 100 | – | > 100 | > 100 | – | – | – | – | – | – | – | –
CCn1c(SCC(=O)NNC(=S)NC)nc2ccccc2c1=O | > 100 | > 100 | > 100 | > 100 | > 100 | > 100 | > 100 | > 100 | > 100 | – | > 100 | > 100 | – | – | – | – | – | – | – | –
Clc1ccc(OCc2nn3c(CCc4nnc5sc(COc6ccc(Cl)cc6)nn45)nnc3s2)cc1 | – | 41 | 55.1 | 53.1 | – | > 100 | > 100 | > 100 | > 100 | – | – | – | – | – | – | – | – | – | – | –
COc1ccc2c(OCc3nnc4ccc(-c5ccccc5)nn34)ccnc2c1 | > 100 | – | > 100 | > 100 | > 100 | > 100 | – | > 100 | – | > 100 | – | > 100 | > 100 | 5.64 | > 100 | > 100 | > 100 | > 100 | > 100 | > 100
CC1=NC(=Cc2ccc([N+](=O)[O-])cc2)C(=O)N1n1c(-c2ccccc2)nc2ccccc2c1=O | > 100 | – | > 100 | > 100 | > 100 | 72.5 | > 100 | > 100 | > 100 | – | > 100 | > 100 | – | – | – | – | – | – | – | –

From PubChem BioAssay (NCI)
